Values of other authors as cited in patent US20210072238A1, “IMMOBILIZATION OF PROTEINS WITH CONTROLLED ORIENTATION AND LOAD” (Oregon State University, priority 2019, published 2021).

Details: ncAA incorporated in protein

Cc1nnc(-c2ccc(C[C@H](N)C(=O)O)cc2)nn1 [Tet2.0, (S)-2-amino-3-(4-(6-methyl-1,2,4,5-tetrazin-3-yl)phenyl) propanoic acid]
second-order in proteo reaction rate with sTCO: ~72,000 M^−1 s^−1
